Experimental findings from ChEMBL document CHEMBL1201862, “PubChem BioAssay data set” (2004) are described below.

In assay [1] the target is T1, High affinity choline transporter 1 (Homo sapiens, UniProt Q9GZV3).
T1 sequence (Q9GZV3 whole entry): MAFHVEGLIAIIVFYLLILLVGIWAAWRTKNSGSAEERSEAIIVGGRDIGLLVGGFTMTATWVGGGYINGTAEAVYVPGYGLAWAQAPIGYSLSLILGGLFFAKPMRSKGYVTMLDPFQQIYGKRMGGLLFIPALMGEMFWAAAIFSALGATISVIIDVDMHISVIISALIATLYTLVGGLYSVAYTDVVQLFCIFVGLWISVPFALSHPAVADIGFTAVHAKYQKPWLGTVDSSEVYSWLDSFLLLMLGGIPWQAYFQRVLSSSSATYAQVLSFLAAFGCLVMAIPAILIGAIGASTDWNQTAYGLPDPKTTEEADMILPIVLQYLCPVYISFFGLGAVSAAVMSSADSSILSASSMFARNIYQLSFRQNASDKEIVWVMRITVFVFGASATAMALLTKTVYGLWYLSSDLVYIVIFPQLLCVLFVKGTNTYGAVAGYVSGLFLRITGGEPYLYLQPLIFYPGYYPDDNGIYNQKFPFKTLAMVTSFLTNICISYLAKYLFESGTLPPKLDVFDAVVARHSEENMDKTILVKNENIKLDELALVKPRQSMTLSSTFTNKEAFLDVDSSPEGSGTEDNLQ
The experiment in a line: human choline transporter blockers, potency – cell-based, 5-point CRC, membrane potential dye, dose response (AID 504840). In kind it is functional.

The target of assay [2] is T1, High affinity choline transporter 1. The experiment in a line: human choline transporter blockers, potency – cell-based, 10-point CRC, membrane potential dye, dose response (AID 588401).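 Note: membrane potential dye fluorescence of choline-evoked depolarization via CHT.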 In kind it is functional.

Activity calls are given as the source filed them. The rule behind the calls is not given here.

As a reminder, the IC50 is the concentration at which inhibition is half-maximal. Regarding `O=C(O)CC1=C(Nc2ccccc2)C(=O)N(c2ccccc2)C1c1ccc(F)cc1` (configuration not stated), the figures for the 50% inhibitory concentration (IC50) in assay [1] and in assay [2] were 3.9 µM (active) and 0.751 µM (active), respectively.
